Like-named read-outs stand apart in the source and are kept apart here. Positions of bridges follow the written chain, without caps; N, C: chain ends. Non-standard residues stand in square brackets, D forms with d. Residues, ends and D or L forms follow the SMILES beside them.
Protocol: In order to stabilize the compound toward such decomposition it was treated in aqueous solution with 10-40 mole % of N-ethylmaleimide, a reagent which will react with free sulfhydryl groups that could catalyze disulfide interchange. The excess N-ethyl maleimide was separated by passage through a column of Sephadex° G-25 gel (superfine) eluted with 50% acetic acid.

With C[C@@H](O)[C@@H]1NC(=O)[C@H](CCCCN)NC(=O)[C@@H](Cc2c[nH]c3ccccc23)NC(=O)[C@H](Cc2ccccc2)NC(=O)[C@@H]2CSSC[C@H](NC1=O)C(=O)N2 [Example 6] (cyclo(CCF[dW]KT); disulfide 1-2) the “stability with respect to polymerization” value (after treatment in aqueous solution with 10-40 mole % of N-ethylmaleimide and reisolation) was “completely stable” and the “stability with respect to polymerization” value (sample as isolated, in certain solvents or on extended storage) was “unstable with respect to polymerization”.

From patent publication EP0113029B1, “Dicyclic hexapeptides, processes for their preparation and pharmaceutical compositions containing them” (Merck & Co., Inc., priority 1982, dated 1989)
